Test results taken from the NIST ThermoML archive (doi:10.1016/j.jct.2018.12.028).
Numbers after ± are expanded uncertainties.

What was measured:
[1] = 101.3 kPa, Liquid; for viscosity: Falling or rolling sphere viscometry; for mass density: Vibrating tube method
[2] = wn = mass fraction of the nth substance listed; settings: 101.3 kPa, Liquid, w1 = 1; for viscosity: Falling or rolling sphere viscometry; for mass density: Vibrating tube method

`NCCO` [2-aminoethan-1-ol] showed a viscosity ([1]; 293.15 K) of 24.23 ± 0.99 mPa·s, a mass density ([1]; 293.15 K) of 1016.7 ± 2 kg/m3 and a viscosity ([1]; 298.15 K) of 18.94 ± 0.77 mPa·s. It also gave a mass density ([1]; 298.15 K) of 1012.8 ± 2 kg/m3, a viscosity ([1]; 303.15 K) of 15.04 ± 0.61 mPa·s and a mass density ([1]; 303.15 K) of 1008.8 ± 2 kg/m3. The viscosity ([1]; 308.15 K) was 12.14 ± 0.49 mPa·s, the mass density ([1]; 308.15 K) was 1004.9 ± 2 kg/m3 and the viscosity ([1]; 313.15 K) was 9.938 ± 0.4 mPa·s. It also gave a mass density ([1]; 313.15 K) of 1000.9 ± 2 kg/m3, a viscosity ([1]; 318.15 K) of 8.236 ± 0.34 mPa·s and a mass density ([1]; 318.15 K) of 996.9 ± 2 kg/m3. The viscosity ([1]; 323.15 K) was 6.907 ± 0.28 mPa·s, the mass density ([1]; 323.15 K) was 992.9 ± 2 kg/m3 and the viscosity ([1]; 328.15 K) was 5.855 ± 0.24 mPa·s. The mass density ([1]; 328.15 K) was 988.8 ± 2 kg/m3, the viscosity ([1]; 333.15 K) was 5.011 ± 0.2 mPa·s and the mass density ([1]; 333.15 K) was 984.8 ± 2 kg/m3. It also gave a viscosity ([1]; 338.15 K) of 4.327 ± 0.18 mPa·s, a mass density ([1]; 338.15 K) of 980.7 ± 2 kg/m3 and a viscosity ([1]; 343.15 K) of 3.766 ± 0.15 mPa·s. It also gave a mass density ([1]; 343.15 K) of 976.6 ± 2 kg/m3, a viscosity ([1]; 348.15 K) of 3.3 ± 0.13 mPa·s and a mass density ([1]; 348.15 K) of 972.5 ± 2 kg/m3. The viscosity ([1]; 353.15 K) was 2.908 ± 0.12 mPa·s and the mass density ([1]; 353.15 K) was 968.4 ± 2 kg/m3.
`NCCO` [2-aminoethan-1-ol] + COCCO showed a viscosity ([2]; 293.15 K) of 24.23 ± 0.99 mPa·s, a mass density ([2]; 293.15 K) of 1016.7 ± 2 kg/m3 and a viscosity ([2]; 298.15 K) of 18.94 ± 0.77 mPa·s. The mass density ([2]; 298.15 K) was 1012.8 ± 2 kg/m3, the viscosity ([2]; 303.15 K) was 15.04 ± 0.61 mPa·s and the mass density ([2]; 303.15 K) was 1008.8 ± 2 kg/m3. It also gave a viscosity ([2]; 308.15 K) of 12.14 ± 0.49 mPa·s, a mass density ([2]; 308.15 K) of 1004.9 ± 2 kg/m3 and a viscosity ([2]; 313.15 K) of 9.938 ± 0.4 mPa·s. For the same compound, the mass density ([2]; 313.15 K) was 1000.9 ± 2 kg/m3, the viscosity ([2]; 318.15 K) was 8.236 ± 0.34 mPa·s and the mass density ([2]; 318.15 K) was 996.9 ± 2 kg/m3. For the same compound, the viscosity ([2]; 323.15 K) was 6.907 ± 0.28 mPa·s, the mass density ([2]; 323.15 K) was 992.9 ± 2 kg/m3 and the viscosity ([2]; 328.15 K) was 5.855 ± 0.24 mPa·s. The mass density ([2]; 328.15 K) was 988.8 ± 2 kg/m3, the viscosity ([2]; 333.15 K) was 5.011 ± 0.2 mPa·s and the mass density ([2]; 333.15 K) was 984.8 ± 2 kg/m3. For the same compound, the viscosity ([2]; 338.15 K) was 4.327 ± 0.18 mPa·s, the mass density ([2]; 338.15 K) was 980.7 ± 2 kg/m3 and the viscosity ([2]; 343.15 K) was 3.766 ± 0.15 mPa·s. For the same compound, the mass density ([2]; 343.15 K) was 976.6 ± 2 kg/m3, the viscosity ([2]; 348.15 K) was 3.3 ± 0.13 mPa·s and the mass density ([2]; 348.15 K) was 972.5 ± 2 kg/m3. It also gave a viscosity ([2]; 353.15 K) of 2.908 ± 0.12 mPa·s and a mass density ([2]; 353.15 K) of 968.4 ± 2 kg/m3.
`COCCO` [2-methoxyethan-1-ol] showed a viscosity ([1]; 293.15 K) of 1.692 ± 0.071 mPa·s, a mass density ([1]; 293.15 K) of 964.7 ± 2 kg/m3 and a viscosity ([1]; 298.15 K) of 1.527 ± 0.064 mPa·s. It also gave a mass density ([1]; 298.15 K) of 960.1 ± 2 kg/m3, a viscosity ([1]; 303.15 K) of 1.386 ± 0.058 mPa·s and a mass density ([1]; 303.15 K) of 955.5 ± 2 kg/m3. For the same compound, the viscosity ([1]; 308.15 K) was 1.262 ± 0.053 mPa·s, the mass density ([1]; 308.15 K) was 950.9 ± 2 kg/m3 and the viscosity ([1]; 313.15 K) was 1.155 ± 0.048 mPa·s. It also gave a mass density ([1]; 313.15 K) of 946.2 ± 2 kg/m3, a viscosity ([1]; 318.15 K) of 1.061 ± 0.044 mPa·s and a mass density ([1]; 318.15 K) of 941.5 ± 2 kg/m3. It also gave a viscosity ([1]; 323.15 K) of 0.9781 ± 0.041 mPa·s, a mass density ([1]; 323.15 K) of 936.7 ± 2 kg/m3 and a viscosity ([1]; 328.15 K) of 0.905 ± 0.037 mPa·s. The mass density ([1]; 328.15 K) was 932 ± 2 kg/m3, the viscosity ([1]; 333.15 K) was 0.8397 ± 0.035 mPa·s and the mass density ([1]; 333.15 K) was 927.2 ± 2 kg/m3. The viscosity ([1]; 338.15 K) was 0.7818 ± 0.032 mPa·s, the mass density ([1]; 338.15 K) was 922.3 ± 2 kg/m3 and the viscosity ([1]; 343.15 K) was 0.7298 ± 0.03 mPa·s. It also gave a mass density ([1]; 343.15 K) of 917.4 ± 2 kg/m3, a viscosity ([1]; 348.15 K) of 0.6834 ± 0.028 mPa·s and a mass density ([1]; 348.15 K) of 912.4 ± 2 kg/m3. It also gave a viscosity ([1]; 353.15 K) of 0.6409 ± 0.026 mPa·s and a mass density ([1]; 353.15 K) of 907.4 ± 2 kg/m3.
